Source: ChEMBL document CHEMBL2440048 (J Med Chem, 2013)

Assay: Inhibition of RyR2 R4496C mutant (unknown origin)-mediated store-overload induced calcium release expressed in HEK293 cells after 8 to 10 mins by fura-2/AM dye-based fluorescence assay
Format: cell-based
Conditions: Homo sapiens

IC50	SMILES
> 1000 µM	COc1ccccc1OCCNCC(O)COc1ccc2[nH]cnc2c1 (configuration not stated)
> 1000 µM	COc1ccc2c(c1)N(C)CCCS2
